The nature of this data set: pH-dependent aqueous solubility of the active ingredient. The format is physicochemical.

As to `O=c1[nH]c2ccccc2n1CCN1CCN(c2cccc(C(F)(F)F)c2)CC1` [active ingredient, 1-[2-(4-(3-trifluoromethyl-phenyl)piperazin-1-yl)ethyl]-2,3-dihydro-1H-benzimidazol-2-one], the solubility result (pH 2) was “good solubility”. The aqueous solubility result (pH values 5.5-6.8) is “poor”.

These data come from patent publication US8512748B2, “Controlled release system and method for manufacturing the same” (Boehringer Ingelheim International GmbH, priority 2006, dated 2013).
